Test systems include RXF 393 renal; A549 NSCLC; 786-0 renal; LOX IMVI melanoma; HOP-92 NSCLC; BT-549 breast; HCC-2998 colon; EKVX NSCLC; OVCAR-5 ovarian; SF-295 CNS.
Common to all, as to assay: growth of human tumour cells (NCI), 48 h

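Test compounds were applied to cells in 96-well plates for 48 hours at 5 doses. At the GI50, growth is halved. The concentration for full growth arrest is given as TGI.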 A value given as a limit tells only on which side of the number the result lay.

For `OCc1cn(Cc2cccc(Cl)c2)c2ccccc12`, the GI50 is 2430 nM with RXF 393 renal; 15 µM with A549 NSCLC; 5.15 µM in the assay with 786-0 renal; 6710 nM in the assay on LOX IMVI melanoma; 1550 nM in the assay on HOP-92 NSCLC; 6.75 µM with BT-549 breast. In addition, the GI50 in the assay on HCC-2998 colon was 12000 nM; in the assay with EKVX NSCLC it was 17.3 µM; with OVCAR-5 ovarian it was 2630 nM; in the assay on SF-295 CNS it was 145 nM. The TGI in the assay on RXF 393 renal is 18 µM; in the assay on A549 NSCLC, 65.8 µM; in the assay with 786-0 renal it was 28.1 µM; with LOX IMVI melanoma, 25.8 µM; in the assay with HOP-92 NSCLC, 17.4 µM; in the assay on BT-549 breast it was 23.1 µM. Moreover, the TGI in the assay on HCC-2998 colon is 28.3 µM; with EKVX NSCLC, 56.1 µM; in the assay with OVCAR-5 ovarian, 8.89 µM; with SF-295 CNS, 14.5 µM.

Regarding `C(=N\Nc1ccccn1)/c1ccccn1`, the GI50 in the assay with RXF 393 renal was 335 nM; in the assay with A549 NSCLC, 0.501 µM; in the assay with 786-0 renal, 0.301 µM; in the assay on LOX IMVI melanoma it was 319 nM; in the assay on BT-549 breast, 1.62 µM; in the assay on HCC-2998 colon it was 272 nM. In addition, the results for the GI50 in the assay with EKVX NSCLC, in the assay on OVCAR-5 ovarian and in the assay on SF-295 CNS were 0.348 µM, 588 nM and 359 nM, respectively. For the same molecule, the TGI is greater than 100 µM in the assay with A549 NSCLC; greater than 100 µM in the assay on LOX IMVI melanoma; greater than 82.7 µM in the assay on HOP-92 NSCLC; greater than 100 µM with BT-549 breast; 97.3 µM in the assay on HCC-2998 colon; greater than 100 µM in the assay with EKVX NSCLC. Also, the TGI in the assay on OVCAR-5 ovarian is greater than 100 µM; in the assay on SF-295 CNS, greater than 41.3 µM.

Take `CCN(CC)c1ccc(/C=C\c2cc(C)c3cc(C)ccc3n2)cc1`: the GI50 was 3990 nM in the assay with RXF 393 renal; 4.98 µM in the assay with A549 NSCLC; 3.98 µM in the assay on 786-0 renal; 4290 nM in the assay on LOX IMVI melanoma; 1660 nM in the assay with HOP-92 NSCLC; 5.07 µM with BT-549 breast. For the same molecule, the GI50 was 4440 nM in the assay with HCC-2998 colon, 45.6 µM in the assay on EKVX NSCLC, 17700 nM in the assay on OVCAR-5 ovarian and 4190 nM with SF-295 CNS. For the same molecule, the TGI with RXF 393 renal was greater than 100 µM; in the assay with A549 NSCLC it was greater than 100 µM; in the assay with 786-0 renal, greater than 100 µM; in the assay on LOX IMVI melanoma, greater than 100 µM; in the assay with HOP-92 NSCLC, 7.06 µM; with BT-549 breast, greater than 100 µM. The TGI is 23.8 µM with HCC-2998 colon, greater than 100 µM with EKVX NSCLC, greater than 100 µM in the assay on OVCAR-5 ovarian and greater than 100 µM in the assay with SF-295 CNS.

With `c1ccc(Cc2nc3ccc(Nc4ncnc5ccccc45)cc3[nH]2)cc1`, the GI50 in the assay on RXF 393 renal was greater than 25000 nM; in the assay on A549 NSCLC, greater than 25 µM; in the assay on 786-0 renal, greater than 25 µM; with LOX IMVI melanoma it was 17300 nM; in the assay with HOP-92 NSCLC, 9260 nM; in the assay with BT-549 breast it was greater than 25 µM. Further, the GI50 is greater than 25000 nM with HCC-2998 colon, 9.4 µM in the assay on EKVX NSCLC, 17800 nM in the assay with OVCAR-5 ovarian and greater than 25000 nM in the assay on SF-295 CNS. For the same molecule, the TGI in the assay with RXF 393 renal, in the assay with A549 NSCLC, with 786-0 renal, in the assay on LOX IMVI melanoma, in the assay on HOP-92 NSCLC and in the assay with BT-549 breast was greater than 25 µM throughout. Moreover, the TGI with HCC-2998 colon, in the assay on EKVX NSCLC, in the assay on OVCAR-5 ovarian and in the assay on SF-295 CNS was greater than 25 µM each time.

Regarding `NC(=O)c1cnc(N[C@@H]2CCCC[C@@H]2N)nc1Nc1cccc(-n2nccn2)c1`, the GI50 in the assay with RXF 393 renal was 2340 nM; with A549 NSCLC, 3.58 µM; with 786-0 renal, 5.57 µM; with LOX IMVI melanoma it was 2110 nM; with HOP-92 NSCLC it was 2700 nM; in the assay on BT-549 breast, 6.37 µM. Also, the GI50 in the assay with HCC-2998 colon was 1990 nM; in the assay with EKVX NSCLC it was 6.04 µM; in the assay on OVCAR-5 ovarian, 3650 nM; with SF-295 CNS, 13300 nM. In addition, the TGI was 8.05 µM with RXF 393 renal; 14.3 µM in the assay on A549 NSCLC; 17.6 µM in the assay with 786-0 renal; 6.12 µM in the assay with LOX IMVI melanoma; 8.72 µM in the assay with HOP-92 NSCLC; 19 µM in the assay with BT-549 breast. Besides, the TGI came out at 4.82 µM with HCC-2998 colon, 18.9 µM in the assay with EKVX NSCLC, 15.3 µM in the assay with OVCAR-5 ovarian and 26.7 µM in the assay on SF-295 CNS.

For `COc1ccccc1-[n+]1cc(-c2ccc(-c3ccccc3)cc2)n2c1CCCCC2`, the GI50 is 867 nM with RXF 393 renal; 0.51 µM with A549 NSCLC; 1.31 µM with 786-0 renal; 322 nM in the assay on LOX IMVI melanoma; 184 nM with HOP-92 NSCLC; 0.15 µM in the assay with BT-549 breast. The GI50 with HCC-2998 colon was 318 nM; in the assay with EKVX NSCLC, 0.152 µM; in the assay with OVCAR-5 ovarian, 668 nM; with SF-295 CNS it was 359 nM. The TGI with RXF 393 renal came to 9.5 µM; in the assay on A549 NSCLC it was 16.7 µM; in the assay with 786-0 renal it was 11.5 µM; in the assay with LOX IMVI melanoma it was 8.1 µM; in the assay on HOP-92 NSCLC, 1.97 µM; in the assay on BT-549 breast it was 1.25 µM. The TGI in the assay on HCC-2998 colon was determined as 12.6 µM; in the assay on EKVX NSCLC, 14.4 µM; in the assay on OVCAR-5 ovarian it was 16.6 µM; with SF-295 CNS, 4.03 µM.

With `Cc1ccc(C(=O)Nc2ccc(CN3CCN(C)CC3)c(C(F)(F)F)c2)cc1C#Cc1cnc(N)cc1C#N`, the GI50 in the assay on RXF 393 renal is 129 nM; in the assay on A549 NSCLC it was 0.233 µM; in the assay with 786-0 renal, 0.162 µM; with LOX IMVI melanoma, 39.4 nM; in the assay with HOP-92 NSCLC it was 49.6 nM; in the assay on BT-549 breast it was 0.654 µM. The GI50 with HCC-2998 colon is 407 nM; in the assay with EKVX NSCLC it was 0.366 µM; with OVCAR-5 ovarian, 309 nM; in the assay with SF-295 CNS, 315 nM. In addition, the TGI in the assay on RXF 393 renal was 0.706 µM; with A549 NSCLC, 0.958 µM; in the assay on 786-0 renal, 0.826 µM; in the assay with LOX IMVI melanoma it was 0.522 µM; in the assay with HOP-92 NSCLC it was 0.566 µM; in the assay with BT-549 breast it was 2.67 µM. In addition, the TGI in the assay with HCC-2998 colon stood at 1.17 µM; in the assay on EKVX NSCLC, 1.44 µM; in the assay on OVCAR-5 ovarian, 1.42 µM; in the assay on SF-295 CNS, 1.16 µM.

The values above are taken from PubChem BioAssay (NCI).
